The values that follow come from patent publication US20220313650A1, “METHODS FOR TREATING NEURODEVELOPMENTAL DISORDERS” (The Broad Institute, Inc., priority 2019, published 2022).

The structures appear in SMILES notation. Entries after “also recorded” stand apart in the source; their conditions may differ.

One test has as its system cortico-TRN synapses. The test is described as follows: Optogenetically evoked EPSCs in patched TRN neurons, cortico-TRN pathway. The test is classed as cell-based, mice. The conditions noted are these: cortico-TRN synapses, before vs after bath application. How it is done:
(§1) For conducting slice electrophysiology analysis, whole-cell patch-clamp recordings were performed using horizontal slices for the rebound bursting assays and angled-coronal thalamocortical slices for the synaptic optogenetics experiments (Agmon et al., 1991). 21-35 day old male C57BL6 mice and Ptchd1 Y/− (knockout) mice were used. Animals were transcardially perfused under isoflurane anesthesia with an ice-cold cutting solution (194 mM Sucrose, 30 mM NaCl, 4.5 mM KCl, 1.2 mM NaH2PO4, 10 mM Glucose, 2 mM MgCl2, 0.2 mM CaCl2, and 26 mM NaHCO3). Mice were then decapitated and the brains were carefully dissected out. Both cerebellum and olfactory bulb were removed from the brain and were placed and glued onto the stage of a Leica Vibratome with the ventral surface down and the pial surface towards the blade. 250 micron thick slices containing the TRN were then collected and recovered in regular artificial cerebrospinal fluid (aCSF; 119 mM NaCl, 2.3 mM KCl, 1 mM NaH2PO4; 11 mM Glucose, 1.3 mM MgCl2, 2.5 mM CaCl2), 26 mM NaHCO3) heated to 32° C. for 10 minutes and then at room temperature for at least 1 hr. All buffers were continuously bubbled with 95% O2/5% C02. Slices were then transferred to a submersion recording chamber where they were perfused with aCSF at a rate of 2 ml/min at room temperature. Patch recording pipettes were pulled using a Flaming/Brown micropipette puller (Sutter Instruments) and Borosilicate glass (KG33, King Precision Glass). The DC resistances were ˜4-6 MΩ. Potassium methanesulfonate based internal solution (140 mM KMeSO3; 10 mM KCl; 10 mM HEPES; 0.1 mM EGTA; 4 mM Mg-ATP; 0.2 mM Na-GTP; 10 mM hosphocreatine) was used. Neurons were visualized using infrared differential interference contrast (IR-DIC) microscopy (Olympus, BX51W1) with an upright microscope digital camera.
To study the changes in the acute somatosensory thalamocortical or horizontal brain areas, 21-25 days old Nex-Cre or VgluT2-Cre mice were anesthetized with isoflurane while placed in a small animal stereotaxic apparatus (David Kopf Instruments, CA, USA) and were injected bilaterally with 280 nl of mcherry-dflox.hChR2.EF1.AAV1 using a Nanoject (Drummond Scientific, Broomall, Pa.) via glass pipettes with […] diameter tips in somatosensory cortex (S1) and ventrobasal thalamic complex (VB). Coordinates from the bregma for S1: AP −0.7, ML 2.4 and DV 1.2 and for VB: AP −1.6, ML 1.5 and DV 3.5. The pipette was held in the final position for 10 min after injection before withdrawal from the brain. The incision was closed with vetbond and after surgery mice were injected with analgesics (SR-Bupronex 1 mg/kg) every 72 hours or as needed. […]
(§2) After allowing 1-2 weeks for mcherry-dflox.hChR2.EF1.AAV1 expression, acute somatosensory thalamocortical or horizontal brain slices were freshly obtained for in vitro recording and optogenetic stimulation (250 um thick, thalamocortical slices containing TRN from angled-coronal sections; Agmon and Connors, 1991) for optogenetic analysis. In brief, patch clamp recordings in voltage clamp configuration were performed while the Cortico-TRN or Thalamic-TRN pathway was activated by applying a blue LED (400-450 nm) light pulses (Lumen 300-LED Fluorescence Excitation Illumination System). For synaptic stimulation, neurons were held at −70 mV while 0.1-1.5 ms flashes were delivered directly to the recorded cell soma delivered through the 40× water immersion objective. […]

A further test concerns thalamo-TRN synapses. The test is described as follows: Optogenetically evoked EPSCs in patched TRN neurons, thalamo-TRN pathway. In kind it is cell-based, mice. The note with it: thalamo-TRN synapses, before vs after bath perfusion. Here is the method: as §1, with “camera. […]” for “camera.”
as §2

A further test deals with WT mice. In words: Open field test of locomotor activity, WT mice. In kind it is in vivo. How it is done:
(§3) For performing the open field test, mice were allowed to habituate to the behavioral testing room for 1 hour before the experiment. The locomotor activity in mice was evaluated over a 90 minute period in an automated Omnitech Digiscan apparatus (AccuScan Instruments). Locomotor activity was assessed as total distance traveled (m). For drug treatment experiments, mice received an intraperitoneal injection 15 minutes before the assay and then where placed kindly in the left corner, head facing into the corner.
(§4) The effects of mGluR2/3 activation on the locomotor activity of WT mice and Ptchd1 mutant mice were evaluated. In brief, all mice were treated with mGluR2/3 agonist, LY379268, at three different dosages (1 mg/kg, 5 mg/kg and 10 mg/kg) for open-field testing.
(§5) Here, whether mGluR3 activation would rescue the hyperactivity phenotype of Ptchd1 KO mice was evaluated. Locomotor activity estimated as total distance travelled (in) was assessed over a 90 min period in an automated Omnitech Digiscan apparatus. For drug treatment experiments, mice were placed in the open-field arena for 30 minutes prior to Mavalon 63 (5 mg/kg and 10 mg/kg in saline; i.p.), or vehicle injections before being returned to the arena.

The test system of test [1] is Ptchd1 KO mice. In words: Open field test of locomotor activity, Ptchd1 KO mice. The test is classed as in vivo. How it is done:
as §3, §4, §5

The test system of another test is WT TRN neurons. In words: Whole-cell patch-clamp rebound burst firing in acute brain slices, WT mice. The test is classed as cell-based. Here is the method: as §1
The recordings were made with a microelectrode amplifier with bridge and voltage clamp modes of operation (Multiclamp 700B, Molecular Devices, San Jose, Calif., USA). Signals were low-pass filtered at 2 kHz and sampled at 10-20 kHz with a Digidata 1440A (Molecular Devices, San Jose, Calif., USA). Data were stored on a computer for subsequent off-line analysis. Cells with the series resistance (Rs, typically 8-12 MΩ) changed by >20% were excluded for data analysis. In addition, cells with Rs more than […] at any time during the recordings were discarded.

The next test relates to Ptchd1 KO TRN neurons. The test is described as follows: Whole-cell patch-clamp rebound burst firing in acute brain slices, Ptchd1 KO mice. In kind it is cell-based. The note with it: Mavalon 63. Here is the method:
as §1, with “Patch recording pipettes were pulled using a Flaming/Brown micropipette puller (Sutter Instruments) and Borosilicate glass (KG33, King Precision Glass). The DC resistances were ˜4-6 MΩ. Potassium methanesulfonate based internal solution (140 mM KMeSO3; 10 mM KCl; 10 mM HEPES; 0.1 mM EGTA; 4 mM Mg-ATP; 0.2 mM Na-GTP; 10 mM hosphocreatine) was used. Neurons were visualized using infrared differential interference contrast (IR-DIC) microscopy (Olympus, BX51W1) with an upright microscope digital camera.” left out

The subject of the next test is wild type mice. In words: EEG/EMG sleep recording, WT mice. The test is classed as in vivo. The note with it: Mavalon 63 10 mg/kg ip, 12 h recordings, 10 mg/kg. The text has this: For EEG recording studies, 8- to 12-week-old male mice with C57Bl/6J background, Ptchd1Y/− (knockout) and Ptchd1Y/+ (wild type) were deeply anesthetized with a 1% to 1.5% isoflurane. A screw electroencephalography (EEG) electrode (catalog no. 8403; Pinnacle Technology, Inc.) was implanted into the skull above the primary somatosensory cortex, S1 (AP: −1.8 and ML: +3.0 mm) using a stereotaxic device (David Kopf Instruments). A reference electrode was screwed in the occipital region of the skull and stainless steel electromyography (EMG) electrodes were placed in the nuchal muscle. All the electrodes were connected to a head-mount (catalog no. 8201-SS; Pinnacle Technology) and secured by using dental cement. The mice were allowed to recover for at least 2 weeks. Spontaneous EEG/EMG signals were recorded for 12 hours with a differential amplifier (8200-K1-SL amplifier; Pinnacle Technology). […] Data were analyzed offline using Matlab (R2016a; MathWorks). The spectral power was calculated in 0.5-Hz bins (fast Fourier transform with Hamming window) with artifact-free 4-hour EEG signals from each animal. […]
(§6) EEG and EMG from the frontal and parietal cortex and from the nuchal muscular complex were simultaneously recorded.
(§7) Surface electroencephalography (EEG) and electromyography (EMG) from the frontal and parietal cortex and from the nuchal muscular complex were simultaneously recorded.

In test [2] the test system is Ptchd1 KO mice. The test is described as follows: EEG/EMG sleep recording, Ptchd1 KO mice. The test is classed as in vivo. The note with it: Ptchd1 KO mice, Mavalon 63 10 mg/kg ip, 12 h recordings; 10 mg/kg.
Source text: For EEG recording studies, 8- to 12-week-old male mice with C57Bl/6J background, Ptchd1Y/− (knockout) and Ptchd1Y/+ (wild type) were deeply anesthetized with a 1% to 1.5% isoflurane. A screw electroencephalography (EEG) electrode (catalog no. 8403; Pinnacle Technology, Inc.) was implanted into the skull above the primary somatosensory cortex, S1 (AP: −1.8 and ML: +3.0 mm) using a stereotaxic device (David Kopf Instruments). A reference electrode was screwed in the occipital region of the skull and stainless steel electromyography (EMG) electrodes were placed in the nuchal muscle. All the electrodes were connected to a head-mount (catalog no. 8201-SS; Pinnacle Technology) and secured by using dental cement. The mice were allowed to recover for at least 2 weeks. Spontaneous EEG/EMG signals were recorded for 12 hours with a differential amplifier (8200-K1-SL amplifier; Pinnacle Technology). All signals were digitized at a sampling frequency of 1,000 Hz, filtered (1-100 Hz bandpass for EEG; 10-1 kHz bandpass for EMG), and acquired using Sirenia Acquisition program (Pinnacle Technology). Data were analyzed offline using Matlab (R2016a; MathWorks). The spectral power was calculated in 0.5-Hz bins (fast Fourier transform with Hamming window) with artifact-free 4-hour EEG signals from each animal. The power for the spectral band was normalized in reference to the power of the entire EEG spectrum (1-100 Hz) in each animal and averaged across all the animals in the same treatment or drug condition.
as §6, §7

On to `Cc1cc(-c2nc(CN3CCNCC3)no2)cc2c1C(=O)N(Cc1ccc(OC(F)(F)F)cc1)C2` [AZD8529, 1H-Isoindol-1-one, 2,3-dihydro-7-methyl-5-[3-(1-piperazinylmethyl)-1,2,4-oxadiazol-5-yl]-2-[[4-(trifluoromethoxy)phenyl]methyl]-], for which the entries for the “paired-pulse ratio (PPR)” value in the test on cortico-TRN synapses and in the test with thalamo-TRN synapses were “significant increase in the paired-pulse ratio (PPR); also recorded: significantly increased” and “no significant changes in the size of PPR”, respectively. For the same compound, the locomotor activity entry with WT mice (WT mice, AZD8529 three dosing levels i.p., 90 minutes) is given as “reduced locomotor activity”; with Ptchd1 KO mice [1] (AZD8529 10, 20, 50 mg/Kg i.p., 90 minutes), “reduced locomotor activity”.
As to `COc1ccc(C#Cc2ccc(C(=O)N3CCC[C@@H](O)C3)c(F)c2)cc1` [ML337, (R)-(2-fluoro-4-((- 4-methoxy-phenyl)ethynyl)phenyl) (3-hydroxypiperidin-1-yl)methanone], in the test on WT TRN neurons (LY379268 applied in the presence of (after pretreatment with) ML337), the “rebound burst firing, occlusion experiment” value is on record as “blocked LY379268-induced enhancement of rebound bursting”. Further, the “number of rebound burst firings” value in the test with WT TRN neurons (TRN neurons, ML337 5 μM bath application alone) was “decrease in the repetitive rebound bursting; also recorded: reduces the repetitive burst firings; also recorded: number of rebound burst firing was reduced”.
As to `CN1C(=O)c2cccn2-c2cc(-c3ccc(F)cn3)ccc2C12CC2` [Mavalon 63, 5-Methyl-9-(5-fluoropyridin-2-yl)-spiro [benzo[f]pyrrolo[1,2-a][1,4]diazepine-6,1′-cyclopropan]-4(5H)-one], the “number of rebound burst firings” value with WT TRN neurons (WT TRN neurons, Mavalon 63 in bath, after somatic hyperpolarization pulse, holding potentials −80 mV to −50 mV) is “significant increase in repetitive rebound bursting; also recorded: increase in the number of rebound burst firings; also recorded: Significant changes were detected at a membrane holding potentials between −70 mV and −60 mV”. Also, in the test with Ptchd1 KO TRN neurons, the repetitive rebound bursting entry was “significant increase in repetitive rebound bursting”. Also, the “paired-pulse ratio (PPR)” value in the test with cortico-TRN synapses is listed as “not significantly increased”; in the test on cortico-TRN synapses (listed as mGluR3 PAM) it was “No significant changes in PPR”; with thalamo-TRN synapses it was “no significant changes in the size of PPR”; with thalamo-TRN synapses (listed as mGluR3 PAM), “no significant changes in the PPR”. For the same compound, the results for the “length of NREM sleep bout” value in the test with wild type mice and with Ptchd1 KO mice [2] were “no change was observed” and “specifically increased the Non-REM (NREM) sleep bout length; also recorded: increased the length of NREM sleep bout”, respectively. Further, the “locomotor activity (total distance travelled)” value in the test with WT mice (WT mice, Mavalon 63 5 mg/kg and 10 mg/kg i.p., 90 min) is “no significant effect on locomotor activity”; in the test on Ptchd1 KO mice [1] (Mavalon 63 5 mg/kg and 10 mg/kg i.p., 90 min) it was “no significant effect on locomotor activity”. Also, the spontaneous locomotion activity entry with WT mice (wild type mice, Mavalon 63 30 mg/kg i.p.) was “No effect on the spontaneous locomotion activity”. Moreover, in the test with Ptchd1 KO mice [1] (Mavalon 63 30 mg/kg i.p., p=0.06, Bonferroni's multiple comparisons test), the “locomotor activity (hyperactivity)” value was “trend of reducing the hyperactivity”. Moreover, the “hyperactivity phenotype, summary over doses” value in the test on Ptchd1 KO mice [1] (Mavalon 63 5, 10, 30 mg/Kg i.p., dose-dependent manner) was “able to normalize the hyperactivity phenotype”.
